Laboratory results reported in patent US8754233B2, “Pyrazolylbenzothiazole derivatives and their use as therapeutic agents” (Dermira (Canada), Inc., priority 2002, dated 2014).

System: MCP1 on HUVECS
Experiment: Inhibition of MCP-1 release from TNFα-stimulated HUVEC
Assay type: cell-based, human
Settings: 18-24 hours, ELISA
Text: The activation of endothelial cells by pro-inflammatory cytokine TNF-α leads to the production of several chemokines. The release of these chemokines play an important role in leukocyte trafficking and extravasation of leukocytes into tissue during inflammation. MCP-1 and IL-8 are among the chemokines released upon stimulation of human endothelial cells (HUVECs) by TNFα, and contribute to migration of monocytes to the sites of inflammation. Cells should not be passaged more than 6 times.
Cells were maintained and grown in tissue culture flasks (T75) in endothelial cell growth medium (EGM, Clonetics) containing 5 additional supplements (EGM-5) in medium [human recombinant endothelial growth factor (hEGF), hydrocortisone (HC), bovine brain extract (BBE), fetal bovine serum (FBS) and Gentamycin (GA)] incubated at 37° C., 5% CO2. The cells should be propagated a maximum of 20 passages.
The plates were incubated overnight at 37° C., 5% CO2 to enable the cells to attach and grow.
The working concentration of TNFα was 1,000 pg/ml. A twenty times working concentration of TNFα was 20,000 pg/ml was prepared using EGM-5. The test compounds, DMSO negative vehicle control and staurosporine positive control were diluted 20× using EGM-5. Ten μL each of the compounds, DMSO and staurosporine were combined with 180 μl of medium containing HUVEC cells. Immediately following the addition of the compounds, 10 μl of […] TNFα was added to the wells. Medium without TNFα was added to the control wells. […] The plates were incubated at 37° C. in 5% CO2 in humidified conditions overnight (18-24 hours) for TNFα.
At the completion of the stimulation, the plates were spun at 2000 rpm for 10 minutes. The supernatants from each well were transferred to fresh plates for MCP1 analysis by ELISA.
[…] were determined with PharMingen's OptEIA™ MCP1 Kit (PharMingen) according to manufacturer's instructions.
The data is represented as a percentage of MCP1 inhibition by the following formula: % MCP1 inhibition=100−(AVG treatment/AVG DMSO control)*100.

Compound	IC50 [µM]
COc1cc2sc(-c3c(N4CCNCC4)n[nH]c3N)nc2cc1F [4-(5-Fluoro-6-methoxybenzothiazole)-5-piperizin-1-yl-2H-pyrazol-3-ylamine]	10.9
COc1cc2sc(-c3c(NCCN(C)C)n[nH]c3N)nc2cc1F [N^3-(2-Dimethylaminoethyl)-4-(5-fluoro-6-methoxybenzothiazole)-1H-pyrazole-3,5-diamine]	> 25
